Assay [1] concerns the target 5-hydroxytryptamine receptor 2A (Homo sapiens, UniProt P28223).
Assay [2] addresses T1, 5-hydroxytryptamine receptor 1A (Homo sapiens, UniProt P08908).
T1 sequence (P08908 whole entry): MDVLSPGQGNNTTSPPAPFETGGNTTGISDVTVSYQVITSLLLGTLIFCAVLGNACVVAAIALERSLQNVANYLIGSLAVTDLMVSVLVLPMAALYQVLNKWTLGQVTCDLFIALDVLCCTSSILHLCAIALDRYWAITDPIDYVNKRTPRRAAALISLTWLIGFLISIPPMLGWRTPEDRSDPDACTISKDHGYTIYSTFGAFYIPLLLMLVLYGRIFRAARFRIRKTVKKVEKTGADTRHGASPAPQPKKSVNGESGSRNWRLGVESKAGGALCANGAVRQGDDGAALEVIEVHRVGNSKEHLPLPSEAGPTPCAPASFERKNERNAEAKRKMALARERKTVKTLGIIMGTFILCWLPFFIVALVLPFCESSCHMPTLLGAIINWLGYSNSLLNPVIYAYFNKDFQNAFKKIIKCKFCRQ

The target in assay [3] is T2, Muscarinic acetylcholine receptor M2 (Homo sapiens, UniProt P08172).
T2 sequence (P08172 whole entry): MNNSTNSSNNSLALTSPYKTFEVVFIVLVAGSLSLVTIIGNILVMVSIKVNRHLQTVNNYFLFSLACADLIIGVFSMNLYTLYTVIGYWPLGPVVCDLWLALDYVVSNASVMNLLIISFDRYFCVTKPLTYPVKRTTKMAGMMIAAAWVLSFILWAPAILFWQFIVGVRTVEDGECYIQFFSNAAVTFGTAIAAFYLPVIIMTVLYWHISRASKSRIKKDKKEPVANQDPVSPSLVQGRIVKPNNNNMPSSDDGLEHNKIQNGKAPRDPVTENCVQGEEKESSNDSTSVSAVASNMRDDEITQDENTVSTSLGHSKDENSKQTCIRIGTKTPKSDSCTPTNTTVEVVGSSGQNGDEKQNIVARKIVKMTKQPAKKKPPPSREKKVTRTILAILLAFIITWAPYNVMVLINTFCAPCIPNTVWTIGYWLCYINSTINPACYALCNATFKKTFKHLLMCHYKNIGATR

In assay [4] the target is T3, Oxysterols receptor LXR-beta (Homo sapiens, UniProt P55055).
T3 sequence (P55055 whole entry): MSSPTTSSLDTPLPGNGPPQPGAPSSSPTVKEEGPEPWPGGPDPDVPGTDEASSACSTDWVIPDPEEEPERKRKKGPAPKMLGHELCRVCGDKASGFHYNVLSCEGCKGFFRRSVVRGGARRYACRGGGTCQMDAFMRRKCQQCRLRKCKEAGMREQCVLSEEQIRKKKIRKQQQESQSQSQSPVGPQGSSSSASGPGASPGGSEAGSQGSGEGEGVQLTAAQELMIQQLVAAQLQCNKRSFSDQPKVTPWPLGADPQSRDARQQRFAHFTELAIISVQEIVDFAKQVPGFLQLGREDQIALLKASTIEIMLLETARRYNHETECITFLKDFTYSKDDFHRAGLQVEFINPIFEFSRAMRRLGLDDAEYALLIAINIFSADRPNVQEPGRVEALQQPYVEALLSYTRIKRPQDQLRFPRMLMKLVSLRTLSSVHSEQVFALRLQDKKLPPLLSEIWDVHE
It counts as functional.

Assay [5] has as its target T4, Bile acid receptor (Homo sapiens, UniProt Q96RI1).
T4 sequence (Q96RI1 whole entry): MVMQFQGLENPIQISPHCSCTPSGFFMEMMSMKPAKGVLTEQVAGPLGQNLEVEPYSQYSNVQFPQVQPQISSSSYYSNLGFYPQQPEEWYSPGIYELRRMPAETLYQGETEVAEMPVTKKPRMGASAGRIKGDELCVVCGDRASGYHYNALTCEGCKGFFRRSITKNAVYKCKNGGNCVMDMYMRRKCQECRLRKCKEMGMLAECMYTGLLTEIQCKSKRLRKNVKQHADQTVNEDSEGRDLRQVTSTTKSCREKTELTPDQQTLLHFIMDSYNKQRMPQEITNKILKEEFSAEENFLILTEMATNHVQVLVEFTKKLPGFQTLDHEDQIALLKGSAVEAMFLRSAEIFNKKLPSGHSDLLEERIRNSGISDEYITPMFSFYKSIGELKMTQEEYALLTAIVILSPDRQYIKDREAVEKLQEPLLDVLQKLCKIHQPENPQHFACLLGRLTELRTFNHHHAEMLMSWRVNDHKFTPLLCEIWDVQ
It counts as functional.

In assay [6] the target is T4, Bile acid receptor. The format is functional. This is another data set of the same source.
Assay [7] concerns the target T4, Bile acid receptor. It counts as functional. This is another data set of the same source.
Assay [8] concerns the target T4, Bile acid receptor. The format is functional. The source holds these as a separate data set.

SMILES strings stand for the structures. Where only a bound is given, the exact number is not on record here.
Also: assay procedure not described here.

Sequence of 5-hydroxytryptamine receptor 2A (P28223 whole entry): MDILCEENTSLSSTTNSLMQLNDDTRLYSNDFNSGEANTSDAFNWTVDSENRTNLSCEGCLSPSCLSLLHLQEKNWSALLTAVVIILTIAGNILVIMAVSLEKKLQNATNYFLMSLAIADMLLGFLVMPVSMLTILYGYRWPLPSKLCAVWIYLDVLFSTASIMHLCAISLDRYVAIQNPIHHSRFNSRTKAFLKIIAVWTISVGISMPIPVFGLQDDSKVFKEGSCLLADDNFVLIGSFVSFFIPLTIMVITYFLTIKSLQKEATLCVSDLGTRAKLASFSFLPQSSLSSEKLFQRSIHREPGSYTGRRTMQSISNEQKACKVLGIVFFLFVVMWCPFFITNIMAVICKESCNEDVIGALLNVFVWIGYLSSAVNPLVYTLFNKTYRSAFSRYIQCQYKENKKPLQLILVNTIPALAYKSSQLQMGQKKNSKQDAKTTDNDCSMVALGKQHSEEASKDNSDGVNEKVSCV

Regarding `CN(C)CCc1c[nH]c2ccc(Cn3cncn3)cc12` [RIZATRIPTAN], the half-maximal activity concentration (AC50) in assay [1] was over 10 µM.

As for `COc1cc2nccc(Oc3ccc(NC(=O)C4(C(=O)Nc5ccc(F)cc5)CC4)cc3)c2cc1OC` [CABOZANTINIB], the half-maximal activity concentration (AC50) in assay [2] and in assay [3] was over 30 µM each time.

For `CC(C(=O)O)c1ccc2c(c1)[nH]c1ccc(Cl)cc12` (stereo not drawn) [CARPROFEN], the AC50 was over 30 µM in assay [4]; over 30 µM at Bile acid receptor [5]; over 30 µM on Bile acid receptor [6]; over 10 µM on Bile acid receptor [7]; over 30 µM on Bile acid receptor [8].

Values taken from ChEMBL document CHEMBL5291721, “A preclinical secondary pharmacology resource illuminates target-adverse drug reaction associations of marketed drugs” (Nat Commun, 2023).
